Assay results reported in paper PMC10534827 (Pharmaceuticals, 2023).

Legend:
[1] = Lipid peroxidation in linoleic acid system, FTC method; conditions: 10 mM compound, 500 nm
Protocol: The antioxidant activity of studied compounds against lipid peroxidation was measured through ammonium thiocyanate assay as described by Takao et al. [66] with some modifications. […] A 10 μL aliquot of the reaction solution was then added to 200 μL of 70% (v/v) ethanol and 10 μL of 30% (w/v) ammonium thiocyanate. […] Aliquots were assayed every 24 h until the day after the absorbance of the control solution (without compound) reached maximum value. BHT (10 mM) was used as positive control.

[2] = target: T1, butyrylcholinesterase from equine serum (Equus caballus, UniProt P81908); assay: biochemical
T1 construct: butyrylcholinesterase from equine serum; purchased Sigma-Aldrich, Hamburg, Germany; host or cells: equine serum
Protocol: (§1) AChE and BChE inhibitory activity was measured using the microplate assay described by Ellman et al. [68] with the modifications added by López et al. [36]. The compounds were tested at concentrations between 10^−3 and 10^−8 M. First, all compounds were dissolved in 1% DMSO in a concentration of 1 mg/mL.
(§2) Incubation of the plates was performed at room temperature for 30 min. Then, 100 μL of substrate solution were added to start the enzymatic reaction. […] Enzyme activity was calculated as an inhibition percentage compared to an assay including buffer instead of an inhibitor. […] All data were analyzed with the software package Prism 3 (Graph Pad Inc., San Diego, CA, USA).

Neuro-2a cells = assay: MTT cytotoxicity, Neuro-2a; format: cell-based, murine; conditions: Mus musculus, N2a; MTT, 72 h exposure; read-out: Neuro-2a IC50
[3] = Ferric reducing antioxidant power (FRAP); conditions: 150 μL of 5 mM compound, 30 min, 593 nm, Trolox equivalent
[4] = DPPH radical scavenging activity; conditions: 300 μL of 5 mM compound in MeOH, 30 min, 517 nm
Protocol: The DPPH (2,2-diphenyl-1-picryl-hydrazyl-hydrate) free radical scavenging activity method is based on the neutralization of the DPPH radical by an antioxidant.
Free radical scavenging activity was measured using DPPH method [69, 70] with slight modification. Here, 300 μL of 5 mM solutions of tested compounds in MeOH were added to 2 mL methanolic solution of DPPH (2 mg/mL). […] Results were evaluated as percentage scavenging of radical:DPPH radical scavenging activity (%) = ((Abscontr. − Abssample)/Abscontr.) ×100, where Abscontr. is the absorbance of DPPH radical with 300 μL MeOH, Abssample is the absorbance of DPPH radical solution mixed with sample. BHT was used as positive control.

[5] = ABTS radical scavenging assay; conditions: 734 nm after 5 min
Protocol: These compounds were also tested for their antioxidant activities by using the ABTS [2,2′-azinobis (3-ethylbenzothiazoline-6-sulfonic acid)] cation radical decolorization method (Table 4). The BHT [41] was used for comparison. The ABTS cation radical is produced by oxidation of the ABTS molecule with strong oxidizing agents, such as potassium persulfate in water.
For ABTS assay, the procedure followed the method of Arnao et al. [71] with some modifications. […] The working solution was then prepared by mixing the two stock solutions in equal quantities and allowing them to react for 14 h at room temperature in the dark. […] A fresh ABTS solution was prepared for each assay. […] The ABTS scavenging capacity of the compound was calculated as follows:ABTS radical scavenging activity (%) = ((Abscontr. − Abssample)/Abscontr.) ×100, where Abscontr. is the absorbance of DPPH radical with 300 μL MeOH, Abssample is the absorbance of DPPH radical solution mixed with the sample. […] BHT was used as positive control.

[6] = target: T2, Acetylcholinesterase from Electrophorus electricus (Electrophorus electricus, UniProt O42275); assay: biochemical; format: biochemical
T2 construct: purchased Sigma-Aldrich, Hamburg, Germany
Protocol: as §1, §2

PAMPA-BBB permeability = format: in vitro ADME; conditions: experimentally measured BBB permeability
Excerpt: At the same time, they needed to fulfill the requirement for good BBB permeation in order to achieve sufficient brain exposure. Although transport across the BBB is quite a complex phenomenon, passive diffusion is still the primary route for exogenous substances to access that target. So, the selected compounds were subjected to an in vitro PAMPA-BBB assay, relying on the capacity of the method in distinguishing the candidates with good BBB passive permeabilities. […].
The blood–brain barrier permeabilities were measured by PAMPA Permeability Analyzer (pIONInc, Billerica, MA, USA). The tested compounds and reference standards were prepared as 10 mM stock solutions in DMSO and further diluted in Prisma HT buffer pH 7.4. The experiment followed the BBB Protocol: 200 μL sample’s aliquots in the donor compartment, Brain Sink Buffer aliquots (200 μL) in the acceptor wells, BBB-1 lipid for coating the permeation membranes, “sandwich” assembly with the acceptor plate on top of the donor one, and incubation at temperature 25 °C for 4 h under humidity control without stirring. For permeability assessment, UV spectra of the blank, reference, donor, and acceptor plates were collected at wavelength 250–500 nm. […]. Samples were analyzed in triplicate and average values were reported. […]. Theophylline, corticosterone, and propranolol HCl were used as reference standards to control the quality and consistency of the BBB permeability experiment.

CCL-1 cells = assay: MTT cytotoxicity, CCL-1 normal fibroblasts; format: cell-based, murine; conditions: Mus musculus, Fibroblast; MTT, 72 h exposure; read-out: CCL-1 IC50
SH-SY5Y cells = assay: MTT cytotoxicity, SH-SY5Y; format: cell-based, human; conditions: Homo sapiens, SH-SY5Y; MTT, 72 h exposure; read-out: SH-SY5Y IC50

T2 sequence (O42275 24-633): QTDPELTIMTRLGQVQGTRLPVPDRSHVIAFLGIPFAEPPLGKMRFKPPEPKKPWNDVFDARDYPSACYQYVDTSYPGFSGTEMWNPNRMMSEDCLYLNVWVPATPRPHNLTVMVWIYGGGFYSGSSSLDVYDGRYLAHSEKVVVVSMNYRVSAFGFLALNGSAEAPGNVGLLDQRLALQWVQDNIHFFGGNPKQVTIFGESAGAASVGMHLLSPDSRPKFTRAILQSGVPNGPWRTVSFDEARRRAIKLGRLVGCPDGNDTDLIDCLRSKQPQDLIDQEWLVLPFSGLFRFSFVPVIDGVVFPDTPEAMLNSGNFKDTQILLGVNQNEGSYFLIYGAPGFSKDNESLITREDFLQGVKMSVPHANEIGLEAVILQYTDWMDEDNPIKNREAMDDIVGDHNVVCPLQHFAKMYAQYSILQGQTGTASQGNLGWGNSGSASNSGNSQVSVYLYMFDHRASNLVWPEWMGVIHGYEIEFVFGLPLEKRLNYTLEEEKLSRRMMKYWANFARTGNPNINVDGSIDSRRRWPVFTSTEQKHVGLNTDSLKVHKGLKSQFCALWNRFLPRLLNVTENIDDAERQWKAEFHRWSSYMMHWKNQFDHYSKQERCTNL
T1 sequence (P81908 whole entry): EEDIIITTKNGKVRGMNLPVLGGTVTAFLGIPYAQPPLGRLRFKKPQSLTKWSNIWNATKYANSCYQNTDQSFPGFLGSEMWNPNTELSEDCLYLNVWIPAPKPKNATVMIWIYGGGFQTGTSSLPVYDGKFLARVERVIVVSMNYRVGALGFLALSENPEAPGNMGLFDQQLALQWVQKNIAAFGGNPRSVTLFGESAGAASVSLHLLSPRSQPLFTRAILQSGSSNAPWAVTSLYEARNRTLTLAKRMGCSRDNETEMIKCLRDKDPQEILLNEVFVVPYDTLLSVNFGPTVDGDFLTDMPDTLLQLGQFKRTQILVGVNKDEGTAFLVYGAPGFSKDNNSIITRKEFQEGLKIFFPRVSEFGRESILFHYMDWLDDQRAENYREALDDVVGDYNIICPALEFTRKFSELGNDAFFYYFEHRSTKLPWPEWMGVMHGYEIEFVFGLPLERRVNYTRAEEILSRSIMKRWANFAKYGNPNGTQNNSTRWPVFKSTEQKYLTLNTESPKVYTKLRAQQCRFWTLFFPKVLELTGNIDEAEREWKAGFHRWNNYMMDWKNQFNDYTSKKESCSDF

For `O=S(=O)(N/N=C/C1CCN(Cc2ccccc2)CC1)c1ccccc1` [5a, N’-[(E)-(1-benzylpiperidin-4-yl)methylidene]benzenesulfonohydrazide], the “Absorbance Day 1” value ([1]; Day 1) was 0.83 ± 0.02, the “Absorbance Day 2” value ([1]; Day 2) was 0.88 ± 0.08 and the “Absorbance Day 3” value ([1]; Day 3) was 0.89 ± 0.04. For the same molecule, the “Absorbance Day 4” value ([1]; Day 4) was 1.00 ± 0.04, the “Absorbance Day 5” value ([1]; Day 5) was 1.10 ± 0.05 and the inhibition at 1000 µM ([2]; 1 mM solution of the tested compound, read-out: Activity [%] (inhibition percentage of BChE)) was 79.4%. It also gave an IC50 ([2]; mean ± SD of three experiments, read-out: BChE IC50) of 259 ± 4.9 µM, an IC50 (Neuro-2a cells) greater than 300 µM and an FRAP [3] of 17.48 ± 0.90 μMTE. The “DPPH Activity” value [4] was 6.56 ± 0.78%, the “ABTS Activity” value [5] was 43.80 ± 0.23% and the IC50 [5] was greater than 5000 µM. For the same molecule, the inhibition at 1000 µM ([6]; 1 mM solution of the tested compound, read-out: Activity [%] (inhibition percentage of AChE)) was 77%, the IC50 ([6]; mean ± SD of three experiments, read-out: AChE IC50) was 163 ± 10.7 µM and the “PAMPA BBB −logPe” value (PAMPA-BBB permeability) was 4.749. It also gave an IC50 (CCL-1 cells) of 157 ± 8.5 µM and an IC50 (SH-SY5Y cells) of 142 ± 13.1 µM.
